Measurements as given in patent EP4088745A1, “COMPOUND FOR THE DIAGNOSIS OF CANCER” (Eberhard Karls Universität Tübingen Medizinische Fakultät, priority 2021, dated 2022).

Tests used:
HCC1937 cells [1] = experiment: Competition assay of radiotracer uptake; assay type: cell-based, Human; details: 1:2 serial dilution starting at 1µM; Fig. 11
Protocol: Human breast carcinoma cells (HCC1937, ACC513) were purchased from the German Collection of Microorganisms and Cell Cultures (DSMZ GmbH, Braunschweig, Germany) and cultured in Roswell Park Memorial Institute (RPMI) 1640 medium supplemented with 16 % fetal calf serum (FCS), 100 U/ml penicillin and 100 µg/ml streptomycin at 37°C under humid 5 % CO2 atmosphere. Absence of mycoplasma infection was confirmed by PCR analysis in monthly intervals. […] After 30 min of incubation at 37°C, the cells were washed by vacuum filtration of medium through the plate (2×100 µl followed by 2×200 µl), the filters were transferred into tubes using a commercial punch kit (MAMP09608, Merck) and measured in a gamma counter (Wizard 2, Perkin-Elmer, Waltham, MA, USA). Experiments were performed in triplicates and the uptake was quantified as percent of added activity.

[2] = Serum stability analysis in mouse serum; assay type: in vitro ADME; details: over a time course of 240 minutes; Fig 7 B
HCC1937 xenograft = experiment: PET imaging and ex vivo biodistribution in xenograft-bearing mice
Protocol: All animal experiments were performed according to the German animal welfare act and approved by the local authorities (Regierungsprasidium Tübingen, R3/18). Animals were housed in individually ventilated cages (IVCs, 5 mice per cage) with bedding and enrichment, and food and water was provided ad libitum. Animals were kept under isoflurane anesthetic (1.5 % in pure oxygen, 1.5 l/min) during the experiments. 1×10^7 cells in 1:1 ice-cold Matrigel (Thermo Scientific) / PBS were injected subcutaneously in the right shoulder area of 7 week-old female NOD.CB17-Prkdc^scid/J mice (n = 5). […] The mice underwent a second, 10 min static PET scan 2 h post-injection (p.i.). Mice were sacrificed by cervical dislocation, the collected organs were weighed and the tissue uptake was determined by gamma-counting (WIZARD2, PerkinElmer). PET image reconstruction and correlation with MR images was performed with Inveon Acquisition Workplace and Inveon Research Workplace, respectively, using a user-defined dynamic framing and an ordered subset expectation maximization (OSEM3D) algorithm. Regions of interest (ROIs) were drawn according to the acquired MR images and co-registered with the PET data to obtain time-activity curves (TACs).
Statistical analyses were performed with GraphPad Prism 9 using non-parametric t-tests and are represented as mean value ± standard deviation. Blood half-life was calculated using a two-phase decay fit. P-values < 0.05 were considered statistically significant according to the software (*: p < 0.05, **: p < 0.01, ***: p < 0.001, ****: p < 0.0001).

HCC1937 cells [3] = experiment: In vitro radiotracer uptake; assay type: cell-based, Human
Protocol: Human breast carcinoma cells (HCC1937, ACC513) were purchased from the German Collection of Microorganisms and Cell Cultures (DSMZ GmbH, Braunschweig, Germany) and cultured in Roswell Park Memorial Institute (RPMI) 1640 medium supplemented with 16 % fetal calf serum (FCS), 100 U/ml penicillin and 100 µg/ml streptomycin at 37°C under humid 5 % CO2 atmosphere. Absence of mycoplasma infection was confirmed by PCR analysis in monthly intervals.
After 30 min of incubation at 37°C, the cells were washed by vacuum filtration of medium through the plate (2×100 µl followed by 2×200 µl), the filters were transferred into tubes using a commercial punch kit (MAMP09608, Merck) and measured in a gamma counter (Wizard 2, Perkin-Elmer, Waltham, MA, USA). Experiments were performed in triplicates and the uptake was quantified as percent of added activity.

[4] = Serum stability analysis in human serum; assay type: in vitro ADME; details: over a time course of 240 minutes; Fig 7 B

SMILES | blocking of the [^18F]talazoparib signal compared to olaparib (HCC1937 cells [1]) | Stability in mouse serum [2] | absolute xenograft uptake (HCC1937 xenograft; biodistribution analysis 2.5 h p.i., n = 5) | calculated blood half-life (HCC1937 xenograft; blood TAC, two-phase decay fit) | uptake in the brain tissue (HCC1937 xenograft; mouse, in vivo) | uptake in HCC1937 cells (HCC1937 cells [3]; 30 min incubation at 37°C, Fig. 7A) | uptake blocked by excess olaparib and talazoparib (HCC1937 cells [3]; blocking with olaparib or talazoparib, final concentration 25 µM) | Stability in human serum [4]
Cn1ncnc1[C@H]1c2n[nH]c(=O)c3cc(F)cc(c23)N[C@@H]1c1ccc(F)cc1 [talazoparib, (8S,9R)-5-Fluoro-8-(4-fluorophenyl)-2,7,8,9-tetrahydro-9-(1-methyl-1H-1,2,4-triazol-5-yl)-3H-pyrido[4,3,2-de]phthalazin-3-one] | blocked the signal more effective |  |  |  |  |  |  | 
Cn1ncnc1[C@H]1c2n[nH]c(=O)c3cc(F)cc(c23)N[C@@H]1c1ccc([18F])cc1 [[^18F] talazoparib, (8S,9R)-5-Fluoro-8-(4-^18fluorophenyl)-2,7,8,9-tetrahydro-9-(1-methyl-1H-1,2,4-triazol-5-yl)-3H-pyrido[4,3,2-de]phthalazin-3-one] |  | no radiometabolite was detected | 3.7 ± 0.71 %ID/g | 3.3 min | very low uptake | high uptake | blockable to baseline | no radiometabolite was detected
